Data: ChEMBL document CHEMBL5390246, “Design, synthesis and SAR of novel 7-azaindole derivatives as potential Erk5 kinase inhibitor with anticancer activity” (Bioorg Med Chem, 2023)
≈ marks a conversion by molar mass, not a printed value. One block for each molecule: values may come before it. Calls of active or inactive are those of the source. No cut-off for these calls is given here.

Legend:
[1] = tested on: A549; test: Antiproliferative activity against human A549 cells assessed as cell growth inhibition rate at 20 ug/mL incubated for 48 hrs by MTT assay relative to control; format: functional; design: scale not given: the % may be the effect or the level left; conditions: dose 20 µg/ml
[2] = tested on: A549; test: Antiproliferative activity against human A549 cells assessed as cell growth inhibition incubated for 48 hrs by MTT assay; format: functional, cell-based; conditions: A549, 48 h
[3] = tested on: A549; test: Antitumor activity against human A549 cells assessed as decrease in phosphorylation of Erk5 incubated for 48 hrs by Western blotting analysis; format: functional, cell-based; conditions: dose 2.5-10 µM
[4] = tested on: A549; test: Induction of apoptosis in human A549 cells assessed as inhibition of colony formation incubated for 10 days by crystal violet staining based assay; format: functional, cell-based; conditions: dose 2.5-10 µM, time 10.0 day
[5] = tested on: A549; test: Induction of apoptosis in human A549 cells assessed as formation of apoptotic bodies at 2.5 to 10 uM incubated for 48 hrs by DAPI staining based fluorescence microscopic analysis; format: functional, cell-based; conditions: dose 2.5-10 µM
[6] = tested on: A549; test: Induction of apoptosis in human A549 cells assessed as chromatin condensation at 2.5 to 10 uM incubated for 48 hrs by DAPI staining based fluorescence microscopic analysis; format: functional, cell-based; conditions: dose 2.5-10 µM
[7] = tested on: A549; test: Induction of apoptosis in human A549 cells assessed as irregular cell morphology at 2.5 to 10 uM incubated for 48 hrs by light microscopic analysis; format: functional, cell-based; conditions: dose 2.5-10 µM

SMILES: O=C(c1ccc(F)cc1)N1CC=C(c2c[nH]c3ncccc23)CC1
Activity [1]: 59.94%

SMILES: O=C(c1ccc([N+](=O)[O-])cc1)N1CC=C(c2c[nH]c3ncccc23)CC1
Activity [1]: 69.77%

SMILES: O=C(c1ccc(Cl)cc1)N1CCC(c2c[nH]c3ncccc23)CC1
Activity [1]: 50.17%

SMILES: O=C(c1ccc2ccccc2c1)N1CC=C(c2c[nH]c3ncccc23)CC1
Activity [1]: 62.25%

SMILES: O=C(c1ccccc1F)N1CCC(c2c[nH]c3ncccc23)CC1
Activity [1]: 48.02%

SMILES: Clc1ccc(CN2CC=C(c3c[nH]c4ncccc34)CC2)cc1Cl
IC50 [2]: 7.33 µg/mL (≈ 20.5 µM) | Activity [1]: 80.28%

SMILES: FC(F)(F)Oc1ccc(CN2CC=C(c3c[nH]c4ncccc34)CC2)cc1
Activity [1]: 46.56%

SMILES: Fc1ccccc1C(=S)N1CC=C(c2c[nH]c3ncccc23)CC1
Activity [1]: 65.92%

SMILES: C1=C(c2c[nH]c3ccccc23)CCN(Cc2ccc3ccccc3c2)C1
Activity [1]: 70.17%

SMILES: Clc1ccc(CN2CC=C(c3c[nH]c4ccccc34)CC2)cc1Cl
Activity [1]: 56.41%

SMILES: c1ccc2cc(CN3CCC(c4c[nH]c5ncccc45)CC3)ccc2c1
Activity [1]: 76.69%

SMILES: Cc1ccc(CN2CC=C(c3c[nH]c4ncccc34)CC2)cc1
Activity [1]: 54.95%

SMILES: O=C(c1ccc(Cl)c(Cl)c1)N1CC=C(c2c[nH]c3ncccc23)CC1
Activity [1]: 66.12%

SMILES: O=C(c1ccccc1F)N1CC=C(c2c[nH]c3ccccc23)CC1
Activity [1]: 50.26%

SMILES: Clc1ccccc1CN1CC=C(c2c[nH]c3ncccc23)CC1
IC50 [2]: 12 µg/mL (≈ 37 µM) | Activity [1]: 84.18%

SMILES: O=C(c1ccc(C(F)(F)F)cc1)N1CC=C(c2c[nH]c3ncccc23)CC1
Activity [1]: 65.74%

SMILES: O=C(c1ccc(Cl)cc1)N1CC=C(c2c[nH]c3ccccc23)CC1
Activity [1]: 67.52%

IC50 [2]: 10.4 µg/mL (≈ 31.3 µM)
SMILES: COc1ccc(C(=O)N2CC=C(c3c[nH]c4ncccc34)CC2)cc1
Activity [1]: 70.89%

SMILES: N#Cc1ccc(CN2CC=C(c3c[nH]c4ncccc34)CC2)cc1
Activity [1]: 9.76%

SMILES: S=C(c1ccc(Cl)cc1)N1CC=C(c2c[nH]c3ncccc23)CC1
Activity [1]: 51.43%

SMILES: C1=C(c2c[nH]c3ncccc23)CCN(Cc2ccc3ccccc3c2)C1
IC50 [2]: 4.56 µg/mL (≈ 13.4 µM) | Activity [3]: Dose-Dependent Effect | Activity [4]: Dose-Dependent Effect | Activity [1]: 90.08% | Activity [5]: Active | Activity [6]: Active | Activity [7]: Active

SMILES: COc1ccc(CN2CC=C(c3c[nH]c4ncccc34)CC2)cc1
Activity [1]: -3.33%

IC50 [2]: 11 µg/mL (≈ 28.7 µM)
SMILES: O=C(c1ccc(Br)cc1)N1CC=C(c2c[nH]c3ncccc23)CC1
Activity [1]: 71.11%

SMILES: C1=C(c2c[nH]c3ncccc23)CCN(Cc2ccccc2)C1
Activity [1]: 44.74%

SMILES: Clc1ccc(CN2CCC(c3c[nH]c4ncccc34)CC2)cc1Cl
Activity [1]: 32.22%

SMILES: Fc1ccc(CN2CC=C(c3c[nH]c4ncccc34)CC2)cc1
Activity [1]: 43.89%

SMILES: Clc1ccc(CN2CC=C(c3c[nH]c4ncccc34)CC2)cc1
Activity [1]: 0.74%

SMILES: FC(F)(F)c1ccc(CN2CC=C(c3c[nH]c4ncccc34)CC2)cc1
Activity [1]: 44.64%

IC50 [2]: 10.3 µg/mL (≈ 30.6 µM)
SMILES: O=C(c1cccc(Cl)c1)N1CC=C(c2c[nH]c3ncccc23)CC1
Activity [1]: 73.66%

SMILES: N#Cc1ccc(C(=O)N2CC=C(c3c[nH]c4ncccc34)CC2)cc1
Activity [1]: 21.45%

SMILES: Cc1ccc(C(=O)N2CC=C(c3c[nH]c4ncccc34)CC2)cc1
Activity [1]: 41.24%

SMILES: O=C(c1ccccc1Cl)N1CC=C(c2c[nH]c3ncccc23)CC1
Activity [1]: 52.62%

SMILES: Fc1ccccc1CN1CC=C(c2c[nH]c3ncccc23)CC1
Activity [1]: 3.55%

IC50 [2]: 6.23 µg/mL (≈ 18.4 µM)
SMILES: O=C(c1ccc(Cl)cc1)N1CC=C(c2c[nH]c3ncccc23)CC1
Activity [3]: Dose-Dependent Effect | Activity [4]: Dose-Dependent Effect | Activity [1]: 82.78% | Activity [5]: Active | Activity [6]: Active | Activity [7]: Active

SMILES: Brc1ccc(CN2CC=C(c3c[nH]c4ncccc34)CC2)cc1
Activity [1]: -25.78%

SMILES: O=C(c1ccccc1)N1CC=C(c2c[nH]c3ncccc23)CC1
Activity [1]: 58.37%

SMILES: O=[N+]([O-])c1ccc(CN2CC=C(c3c[nH]c4ncccc34)CC2)cc1
Activity [1]: 16.85%

IC50 [2]: 8.52 µg/mL (≈ 26.5 µM)
SMILES: O=C(c1ccccc1F)N1CC=C(c2c[nH]c3ncccc23)CC1
Activity [1]: 75.54%

SMILES: Clc1cccc(CN2CC=C(c3c[nH]c4ncccc34)CC2)c1
Activity [1]: 52.55%

SMILES: Nc1ccc(C(=O)N2CC=C(c3c[nH]c4ncccc34)CC2)cc1
Activity [1]: 45.12%
